Source: patent US4833257A, “Compositions of matter and methods of using same” (Arizona Board of Regents, priority 1986, dated 1989)
≈ marks a conversion by molar mass, not a printed value. Where two headings read alike, the source gives them in different places.

Tests used:
[1] = tested on: P388 lymphocytic leukemia and other NCI test systems; experiment: cell growth inhibitory and antineoplastic activity against P388 lymphocytic leukemia and other NCI test systems; set-up: species or system murine
From the text: (§1) The isolation and purification methods chosen can be monitored at each step by performing in-vitro and/or in-vivo antitumor tests as described by R. I. Geran, N. H. Greenberg, M. M. MacDonald, A. M. Schumacher and B. S. Abbot in Cancer Chemother. Rep. Part 3, Vol 3: 1-103 (1972); and by Schmidt, J. M.; Pettit, G. R. in Experientia 1978, 34: 659-660. Such tests include the determination of the concentration of active material required to inhibit the growth of tumor cells in culture, (e.g. the concentration required to inhibit growth by 50 percent or the E.D.50) and of the dose of active material required to prolong the life of mice bearing transplanted tumors. The chemical structures of the bryostatins of the present invention are shown below and the physical characteristics are reported in the pertinent examples. The structures are: [drawing 2]

[2] = tested on: P388 lymphocytic leukemia (PS cell line); experiment: P388 lymphocytic leukemia (PS) cell line growth inhibition; type: cell-based, murine; conditions: Mus musculus
From the text: as §1

[3] = tested on: P388 lymphocytic leukemia (PS system); experiment: in vivo antitumor test in mice bearing P388 lymphocytic leukemia (PS system), life extension / T/C
From the text: as §1

[4] = P388 lymphocytic leukemia cell line, read-out: PS cell line growth inhibition ED50

SMILES: CCCC(=O)O[C@H]1C[C@H]2C[C@@H](O)CC(=O)O[C@@H]([C@@H](C)O)C[C@@H]3C/C(=C\C(=O)OC)C[C@@](O)(O3)C(C)(C)/C=C/[C@H]3C/C(=C\C(=O)OC)C[C@@H](C[C@](O)(O2)C1(C)C)O3 [Bryostatin 13]
- cell growth inhibitory and antineoplastic activity [1]: substantial cell growth inhibitory and antineoplastic activity
- IC50 [2, 4]: 5.4 ng/mL (≈ 6.79 nM)

SMILES: CCCC(=O)O[C@H]1/C(=C/C(=O)OC)C[C@H]2C[C@H]([C@@H](C)O)OC(=O)C[C@H](O)C[C@@H]3C[C@H](OC(C)=O)C(C)(C)[C@](O)(C[C@@H]4C/C(=C/C(=O)OC)C[C@H](/C=C/C(C)(C)[C@]1(O)O2)O4)O3 [Bryostatin 9]
- life extension ([3]; at 80 μg/kg): 40%
- cell growth inhibitory and antineoplastic activity [1]: substantial cell growth inhibitory and antineoplastic activity
- IC50 ([2]; P388 lymphocytic leukemia, growth inhibition, read-out: PS ED50): 1.2 ng/mL (≈ 1.41 nM)

SMILES: CCC/C=C/C=C/C(=O)O[C@H]1/C(=C/C(=O)OC)C[C@H]2C[C@H]([C@@H](C)O)OC(=O)C[C@H](O)C[C@@H]3C[C@H](OC(=O)CCC)C(C)(C)[C@](O)(C[C@@H]4C/C(=C/C(=O)OC)C[C@H](/C=C/C(C)(C)[C@]1(O)O2)O4)O3 [Bryostatin 12]
- life extension ([3]; at 30-50 μg/kg): 47-68%
- cell growth inhibitory and antineoplastic activity [1]: substantial cell growth inhibitory and antineoplastic activity
- IC50 [2, 4]: 14 ng/mL (≈ 15 nM)

SMILES: COC(=O)/C=C1/C[C@H]2C[C@]3(O)O[C@H](C[C@@H](O)CC(=O)O[C@@H]([C@@H](C)O)C[C@@H]4C/C(=C\C(=O)OC)C[C@@](O)(O4)C(C)(C)/C=C/[C@@H](C1)O2)C[C@H](OC(C)=O)C3(C)C [Bryostatin 11]
- in vivo growth inhibition ([3]; at 92.5 μg/kg): 64%
- cell growth inhibitory and antineoplastic activity [1]: substantial cell growth inhibitory and antineoplastic activity
- IC50 [2, 4]: 0.018 ng/mL (≈ 0.0235 nM)
